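Cultured in 96-well plates, cells were exposed to test compound for 48 hours across five concentrations. GI50 is the concentration that inhibits growth by half. TGI denotes the concentration required for complete inhibition of growth.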
Legend:
Test in all cases: DTP human tumour cell line panel, 48 h
[1] = test system: 786-0 renal
[2] = test system: A498 renal
[3] = test system: A549 NSCLC
[4] = test system: ACHN renal
[5] = test system: BT-549 breast
[6] = test system: CAKI-1 renal
[7] = test system: CCRF-CEM leukemia
[8] = test system: COLO 205 colon
[9] = test system: DU-145 prostate
[10] = test system: EKVX NSCLC
[11] = test system: HCC-2998 colon
[12] = test system: HCT-116 colon
[13] = test system: HCT-15 colon
[14] = test system: HL-60(TB) leukemia
[15] = test system: HOP-62 NSCLC
[16] = test system: HOP-92 NSCLC
[17] = test system: HS 578T breast
[18] = test system: HT29 colon
[19] = test system: IGROV1 ovarian
[20] = test system: KM12 colon
[21] = test system: LOX IMVI melanoma
[22] = test system: M14 melanoma
[23] = test system: MALME-3M melanoma
[24] = test system: MCF7 breast
[25] = test system: MDA-MB-231 breast
[26] = test system: MDA-MB-435
[27] = test system: MOLT-4 leukemia
[28] = test system: NCI-H226 lung
[29] = test system: NCI-H460 lung
[30] = test system: NCI-H522 lung
[31] = test system: OVCAR-3 ovarian
[32] = test system: OVCAR-4 ovarian
[33] = test system: OVCAR-5 ovarian
[34] = test system: PC-3 prostate
[35] = test system: RPMI-8226 leukemia
[36] = test system: RXF 393 renal
[37] = test system: SF-268 CNS
[38] = test system: SF-295 CNS
[39] = test system: SF-539 CNS
[40] = test system: SK-MEL-2 melanoma
[41] = test system: SK-MEL-28 melanoma
[42] = test system: SK-MEL-5 melanoma
[43] = test system: SK-OV-3 ovarian
[44] = test system: SN12C renal
[45] = test system: SNB-19 CNS
[46] = test system: SNB-75 CNS
[47] = test system: SR leukemia
[48] = test system: SW-620 colon
[49] = test system: T-47D breast
[50] = test system: TK-10 renal
[51] = test system: U251 CNS
[52] = test system: UACC-257 melanoma
[53] = test system: UACC-62 melanoma
[54] = test system: UO-31 renal

In the case of `CCN(CC)c1ccc(NC2=C(Cl)C(=O)c3nc(C)ccc3C2=O)cc1`, the GI50 [1] is reported as 1.87 µM, the TGI [1] is reported as 3.55 µM and the GI50 [2] is reported as 11.9 µM. The TGI [2] was 24.5 µM, the GI50 [3] was 2.61 µM and the TGI [3] was 7.05 µM. For the same compound, the GI50 [4] was 1.93 µM, the TGI [4] was 3.43 µM and the GI50 [5] was 1.58 µM. The TGI [5] was 2.96 µM, the GI50 [6] was 1.61 µM and the TGI [6] was 3.16 µM. It also gave a GI50 [7] of 2.27 µM, a TGI [7] of 6.43 µM and a GI50 [8] of 1.92 µM. The TGI [8] was 3.82 µM, the GI50 [9] was 1.93 µM and the TGI [9] was 3.51 µM. The GI50 [10] was 1.59 µM, the TGI [10] was 3.33 µM and the GI50 [11] was 1.89 µM. For the same compound, the TGI [11] was 3.55 µM, the GI50 [12] was 1.75 µM and the TGI [12] was 3.63 µM. It also gave a GI50 [13] of 1.63 µM, a TGI [13] of 3.34 µM and a GI50 [14] of 1.55 µM. The TGI [14] was 4.1 µM, the GI50 [15] was 3.21 µM and the TGI [15] was 12.2 µM. It also gave a GI50 [16] of 1.71 µM, a TGI [16] of 3.41 µM and a GI50 [17] of 2.38 µM. It also gave a TGI [17] of 6.37 µM, a GI50 [18] of 2.66 µM and a TGI [18] of 6.76 µM. It also gave a GI50 [19] of 2.11 µM, a TGI [19] of 4.31 µM and a GI50 [20] of 2.42 µM. For the same compound, the TGI [20] was 5.88 µM, the GI50 [21] was 1.67 µM and the TGI [21] was 3.5 µM. The GI50 [22] was 1.73 µM, the TGI [22] was 3.3 µM and the GI50 [23] was 2.18 µM. For the same compound, the TGI [23] was 4.13 µM, the GI50 [24] was 1.94 µM and the TGI [24] was 5.04 µM. It also gave a GI50 [25] of 1.89 µM, a TGI [25] of 3.69 µM and a GI50 [26] of 1.99 µM. For the same compound, the TGI [26] was 3.87 µM, the GI50 [27] was 1.91 µM and the TGI [27] was 5.43 µM. It also gave a GI50 [28] of 2.27 µM, a TGI [28] of 5.6 µM and a GI50 [29] of 5.38 µM. It also gave a TGI [29] of 23.2 µM, a GI50 [30] of 1.81 µM and a TGI [30] of 3.92 µM. It also gave a GI50 [31] of 1.81 µM, a TGI [31] of 3.3 µM and a GI50 [32] of 1.82 µM. It also gave a TGI [32] of 3.52 µM, a GI50 [33] of 2.12 µM and a TGI [33] of 4.1 µM. The GI50 [34] was 1.8 µM, the TGI [34] was 3.66 µM and the GI50 [35] was 2.52 µM. The TGI [35] was 6.29 µM, the GI50 [36] was 1.63 µM and the TGI [36] was 3.02 µM. For the same compound, the GI50 [37] was 1.8 µM, the TGI [37] was 3.53 µM and the GI50 [38] was 1.97 µM. For the same compound, the TGI [38] was 4.23 µM, the GI50 [39] was 1.82 µM and the TGI [39] was 3.38 µM. The GI50 [40] was 1.85 µM, the TGI [40] was 3.48 µM and the GI50 [41] was 2.04 µM. It also gave a TGI [41] of 3.68 µM, a GI50 [42] of 1.75 µM and a TGI [42] of 3.22 µM. For the same compound, the GI50 [43] was 2.2 µM, the TGI [43] was 6.57 µM and the GI50 [44] was 1.95 µM. For the same compound, the TGI [44] was 4.35 µM, the GI50 [45] was 1.77 µM and the TGI [45] was 3.35 µM. It also gave a GI50 [46] of 1.98 µM, a TGI [46] of 5.03 µM and a GI50 [47] of 0.643 µM. The TGI [47] was 3.67 µM, the GI50 [48] was 2.18 µM and the TGI [48] was 4.74 µM. It also gave a GI50 [49] of 1.96 µM, a TGI [49] of 5.46 µM and a GI50 [50] of 2.05 µM. It also gave a TGI [50] of 3.51 µM, a GI50 [51] of 1.87 µM and a TGI [51] of 3.57 µM. It also gave a GI50 [52] of 1.6 µM, a TGI [52] of 3 µM and a GI50 [53] of 1.63 µM. For the same compound, the TGI [53] was 3.13 µM, the GI50 [54] was 1.54 µM and the TGI [54] was 2.93 µM.

— PubChem BioAssay (NCI)
